Laboratory results from patent US20090030015A1, “NOVEL MULTI-CYCLIC COMPOUNDS” (REVOTAR BIOPHARMACEUTICALS AG, priority 2005, published 2009).

Assays:
[1] = target: T1, human L-Selectin-IgG-chimera (Homo sapiens, UniProt P14151); assay: Sialyl Lewis X Tyrosine Sulfate Assay (sLex TSA), L-selectin; type: binding; conditions: sLexTSA
T1 construct: fused on or other part: human IgG Fc part, captured on the plate by goat anti human Fc antibody; a tag, no second protein
T1 sequence (P14151 39-318 limits assumed): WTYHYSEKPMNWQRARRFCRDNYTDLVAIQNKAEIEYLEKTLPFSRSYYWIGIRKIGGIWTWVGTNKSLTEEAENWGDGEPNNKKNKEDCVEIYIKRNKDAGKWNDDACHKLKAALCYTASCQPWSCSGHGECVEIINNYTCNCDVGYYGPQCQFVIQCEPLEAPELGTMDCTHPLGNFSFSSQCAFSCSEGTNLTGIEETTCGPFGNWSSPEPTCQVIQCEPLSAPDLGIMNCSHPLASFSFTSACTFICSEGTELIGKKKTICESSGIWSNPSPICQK
Procedure: (§1) Sialyl Lewis^X Tyrosine Sulfate Assay (sLe^x TSA):
(§2) Compounds of the present invention are assayed on a molecular level for their ability to inhibit the binding of P-, L-, or E-selectin chimeric molecules to sLe^x and tyrosinesulfate residues linked to a polymeric matrix as a PSGL-1 substitute. Selected IC50-values are determined.
(§3) Microtiter plates are coated overnight in carbonate buffer pH9.6 with goat anti human Fc mAB (10 μg/ml). After washing in assay buffer (25 mM 4-(2-hydroxyethyl)-1-piperazineethanesulfonic acid (HEPES), 150 mM NaCl, 1 mM CaCl2 pH7.4) and blocking (3% bovine serum albumin (BSA) in assay buffer) plates are incubated for 2 h at 37° C. with human P-Selectin-IgG-chimera (0.61 nM respectively 150 ng/mL) or human L-Selectin-IgG-chimera (0.61 nM respectively 89 ng/mL) or human E-Selectin-IgG-chimera (0.61 nM respectively 131 ng/mL). 5 μl of sLe^x-tyrosine sulfate polyacrylamide (1 mg/ml) carrying 15% sLe^x, 10% Tyrosine-sulfate and 5% biotin is complexed with 20 μl Streptavidin-Peroxidase solution (1 mg/ml) and 25 μl assay buffer without CaCl2. For use in the assay, the ligand complex is diluted 1:10000 in assay buffer and further diluted 1:1 with varying amounts of compounds in assay buffer incl. 2% DMSO. This mixture is added to the wells precoated with E- or P-selectin. After incubation for 2 h at 37° C., wells are washed for six times with in assay buffer incl. 0.005% Polyoxyethylenesorbitan monolaurate (TWEEN 20), developed for 10-15 min with 20 μl 3,3′,5,5′-tetramethylbenzidine (TMB)/H2O2 substrate solution and stopped with 20 μl 1M H2SO4. Bound sLe^x-Tyrosine sulfate ligand complex is determined by measuring optical density at 450 nm vs. 620 nm in a Fusion alpha-FP reader (sold from Packard Bioscience, Dreieich, Germany).

[2] = test system: human P-selectin-IgG chimera; assay: Flow chamber assay, cell adhesion and rolling under flow conditions, P-selectin; type: cell-based; conditions: normalized ratio of %-inhibition of compound divided by %-inhibition of bimosiamose; 125 μM compound; HL-60 cells; flow shear 1 dyne/cm^2
Procedure: (§4) Flow Chamber Assay/Cell Adhesion and Rolling Under Flow Conditions
(§5) To assess the capability of compounds to inhibit cell binding under dynamic conditions resembling the flow in a blood vessel, flow chamber assays addressing/testing binding of HL-60 cells/various cell lines to P-selectin, L-selectin and E-selectin chimeric molecules are performed.
(§6) Cell attachment under flow conditions is determined using a parallel flow chamber system. A 35 mm polystyrene culture dish is coated for 1 hour at room temperature with coating buffer (50 mM tris-(hydroxymethyl)aminomethane buffer (Tris), 150 mM NaCl, 2 mM CaCl2; pH 7.4) containing human E- or P-selectin-IgG chimera at concentrations of 2.5 μg/ml or 10 μg/ml, respectively. After removal of the coating solution non specific binding sites are blocked for an additional hour with 1% BSA in coating buffer at room temperature. After washing with assay buffer (“Roswell Park Memorial Institute 1640” (RPMI 1640)+10 mM HEPES) the dish is fitted into a parallel plate laminar flow chamber (sold from Glycotech, Rockville, Md.) and mounted on an inverted phase-contrast microscope (sold from Olympus, Hamburg, Germany) equipped with a CCD camera (JVC) that is connected to a PC. Employing a peristaltic pump (sold from Ismatec, Wertheim-Mondfeld, Germany) the re-circulating system is equilibrated with assay buffer containing 125 μM compound or vehicle control (DMSO). Cells (1 million/ml) are added to the chamber and allowed to distribute for 2 minutes at a high flow rate. The flow rate is then decreased resulting in a calculated flow shear of 1 dyne/cm^2. Video sequences of 10 low power fields are digitally recorded after 5 minutes continuous flow. The percentage of inhibition is calculated from the mean number of cells per field that attached to the coated dish surface in the presence versus absence of compound […].

[3] = test system: human E-selectin-IgG chimera; assay: Flow chamber assay, cell adhesion and rolling under flow conditions, E-selectin; type: cell-based; conditions: normalized ratio of %-inhibition of compound divided by %-inhibition of bimosiamose; 125 μM compound; HL-60 cells; flow shear 1 dyne/cm^2
Procedure: as §4, §5, §6

[4] = target: T2, human P-Selectin-IgG-chimera (Homo sapiens, UniProt P16109); assay: Sialyl Lewis X Tyrosine Sulfate Assay (sLex TSA), P-selectin; type: binding; conditions: sLexTSA
T2 sequence (P16109 42-771 limits assumed): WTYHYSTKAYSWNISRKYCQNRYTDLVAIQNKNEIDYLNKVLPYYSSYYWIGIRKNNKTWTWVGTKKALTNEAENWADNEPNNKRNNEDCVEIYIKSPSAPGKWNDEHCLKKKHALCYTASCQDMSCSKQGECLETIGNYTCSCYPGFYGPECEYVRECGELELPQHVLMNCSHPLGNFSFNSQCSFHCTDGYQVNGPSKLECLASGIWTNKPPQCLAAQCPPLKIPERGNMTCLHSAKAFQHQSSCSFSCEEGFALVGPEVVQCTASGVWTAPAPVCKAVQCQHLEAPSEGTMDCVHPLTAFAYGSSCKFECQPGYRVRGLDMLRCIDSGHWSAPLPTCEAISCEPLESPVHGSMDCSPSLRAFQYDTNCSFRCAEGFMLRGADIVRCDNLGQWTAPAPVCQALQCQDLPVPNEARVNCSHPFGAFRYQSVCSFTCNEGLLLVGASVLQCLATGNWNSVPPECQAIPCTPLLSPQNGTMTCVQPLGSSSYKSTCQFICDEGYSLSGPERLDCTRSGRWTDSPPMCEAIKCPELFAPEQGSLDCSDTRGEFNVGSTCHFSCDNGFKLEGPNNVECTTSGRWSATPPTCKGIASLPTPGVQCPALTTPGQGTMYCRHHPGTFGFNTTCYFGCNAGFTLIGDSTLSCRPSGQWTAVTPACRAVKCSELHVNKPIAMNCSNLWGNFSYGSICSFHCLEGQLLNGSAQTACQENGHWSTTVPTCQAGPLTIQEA
Procedure: as §1, §2, §3

[5] = target: T3, human E-Selectin-IgG-chimera (Homo sapiens, UniProt P16581); assay: Sialyl Lewis X Tyrosine Sulfate Assay (sLex TSA), E-selectin; type: binding; conditions: sLexTSA
T3 construct: fused on or other part: human IgG Fc part, captured on the plate by goat anti human Fc antibody; a tag, no second protein
T3 sequence (P16581 22-175 limits assumed): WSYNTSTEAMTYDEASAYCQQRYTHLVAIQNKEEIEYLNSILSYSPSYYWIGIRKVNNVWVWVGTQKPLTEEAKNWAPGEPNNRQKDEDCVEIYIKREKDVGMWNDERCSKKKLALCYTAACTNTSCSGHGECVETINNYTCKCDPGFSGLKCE
Procedure: as §1, §2, §3

IC50 [1]: 319 µM | IC50 [4]: 238 µM | IC50 [5]: 201 µM
Structure (SMILES): COc1ccc(CC(=O)Nc2ccc(-c3cc(C(=O)O)c(C)o3)cc2)c(OC)c1 [Compound 28, 5-{4-[2-(2,4-Dimethoxy-phenyl)-acetylamino]-phenyl}-2-methyl-furan-3-carboxylic acid]
P-Selectin [Ratio] [2]: n.s. | E-Selectin [Ratio] [3]: 0.99 Ratio
